# Assay: In vitro skin permeation profiles (permeation cell)
# Type: in vitro ADME, human
# Procedure: Comparison In Vitro Skin Permeation Profiles of Amanidine Prodrugs • System: in-vitro permeation cell (9 ml acceptor volume/1.539 cm^2 diffusion area, 32° C.) • Acceptor medium: phosphate buffer pH 5.5+0.1% NaN3 according to DAB 10 • Active ingredient: benzamidine, benzamidoxime (from Ex. 1) • Skin type: human full skin, ID 899 (belly person) • Vehicle: suspension in olive oil (2% by weight, 50 mg suspension per cell), applied to a circular nonwoven disk made of synthetic wool ([…] type I/20) and occlusively covered with a PSA film (silicone adhesive) as “over-plaster”.
SMILES,comparison of the permeated amounts of benzamidine and benzamidoxime,"permeated amount (female, human, 0 h, 2 % by weight, pH 5.5)","permeated amount (female, human, 8 h, 2 % by weight, pH 5.5)","permeated amount (female, human, 24 h, 2 % by weight, pH 5.5)","permeated amount (female, human, 32 h, 2 % by weight, pH 5.5)","permeated amount (female, human, 48 h, 2 % by weight, pH 5.5)","permeated amount (0 h, human full skin, 2% by weight suspension in olive oil, acceptor phosphate buffer pH 5.5, 32° C.)","permeated amount (8 h, human full skin, 2% by weight suspension in olive oil, acceptor phosphate buffer pH 5.5, 32° C.)","permeated amount (24 h, human full skin, 2% by weight suspension in olive oil, acceptor phosphate buffer pH 5.5, 32° C.)","permeated amount (32 h, human full skin, 2% by weight suspension in olive oil, acceptor phosphate buffer pH 5.5, 32° C.)","permeated amount (48 h, human full skin, 2% by weight suspension in olive oil, acceptor phosphate buffer pH 5.5, 32° C.)"
"NC(=NO)c1ccccc1 [Benzamidinoxime, Benzamidoxime]",advantage of the benzamidoxime being clearly visible,0,50.2,235,315,403,,,,,
"N=C(N)c1ccccc1 [Benzamidine, benzamidine, reference compound]",,,,,,,0,2.24,13.7,21.2,41.3

# From patent US20110311593A1, “N-HYDROXYLATED AMIDINE-, GUANIDINE- AND/OR AMINOHYDRAZONE-TYPE PRODRUGS FOR APPLICATION ON THE SKIN” (priority 2009, published 2011)
